Test results published in patent US11648254B2 (Kumquat Biosciences Inc., priority 2021, dated 2023).
Read-outs that look alike come from different tables or passages of the source.

What was measured:
[1] = target: SOS1 (Homo sapiens (Human), UniProt Q07889); assay: Ras-SOS interaction assay (HTRF); type: biochemical
[2] = test system: MIA PaCa-2 cells (K-Ras G12C); assay: Ras-SOS cellular growth inhibition assay (CellTiter-Glo, 3D); type: cell-based; conditions: Homo sapiens
Procedure, shortened: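 Growth read by CellTiter-Glo luminescence about 5 days after dosing with 3-fold dilutions (9 points), added one day post-seeding. Cells: MIA PaCa-2, 3D culture on ultra-low-attachment surface, medium DMEM/Ham's F12 plus 10% FCS and 2.5% horse serum; IC50 by four-parameter fit.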

[3] = test system: NCI-H1975 cells (EGFR T790M L858R); assay: EGFR-SOS cellular inhibition assay (CellTiter-Glo, 3D); type: cell-based; conditions: Homo sapiens
[4] = K-RasG13D utilized, read-out: IC50 inhibition of SOS
[5] = K-RasG13D, read-out: IC50 value against SOS1
[6] = MIA PaCa-2, 120 h, MIA PaCa-2, 3D proliferation, about 5 days, read-out: Bio-Cell-Prolif-3D (MiaPaca2 IC50)
[7] = MIA PaCa-2, MIA PaCa-2, read-out: IC50 in inhibiting MIA PaCa-2 cell growth
[8] = 120 h, NCI-H1975, 3D proliferation, about 5 days, read-out: Bio-Cell-Prolif-3D (H1975 IC50)
[9] = NCI-H1975, EGFR T790M L858R, read-out: IC50 in inhibiting growth of NCI-H1975 cell line

SOS1, sequence (Q07889 564-1049): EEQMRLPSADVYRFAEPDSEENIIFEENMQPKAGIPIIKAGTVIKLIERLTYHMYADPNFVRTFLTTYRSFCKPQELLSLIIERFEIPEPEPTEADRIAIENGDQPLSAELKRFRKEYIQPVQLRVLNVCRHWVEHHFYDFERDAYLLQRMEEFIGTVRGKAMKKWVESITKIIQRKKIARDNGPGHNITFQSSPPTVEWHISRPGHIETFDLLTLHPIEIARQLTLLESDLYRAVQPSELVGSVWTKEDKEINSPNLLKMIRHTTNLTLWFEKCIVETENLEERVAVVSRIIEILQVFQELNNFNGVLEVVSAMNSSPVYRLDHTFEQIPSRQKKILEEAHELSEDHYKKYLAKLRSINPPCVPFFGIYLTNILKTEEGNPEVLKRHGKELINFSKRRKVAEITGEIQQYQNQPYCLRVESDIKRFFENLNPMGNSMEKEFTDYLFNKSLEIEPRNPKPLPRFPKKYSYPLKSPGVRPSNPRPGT

Structure (SMILES) | IC50 [1, 4] [nM] | IC50 [1, 5] [nM] | IC50 [2, 6] [nM] | IC50 [2, 7] [nM] | IC50 [3, 8] [nM] | IC50 [3, 9] [nM]
COc1nc2nc(C)nc(N[C@H](C)c3cccc(C(F)(F)F)c3F)c2cc1N1CCN(C(=O)CO)CC1 [Compound 313, (R)-1-(4-(4-((1-(2-fluoro-3-(trifluoromethyl)phenyl)ethyl)amino)-7-methoxy-2-methylpyrido[2,3-d]pyrimidin-6-yl)piperazin-1-yl)-2-hydroxyethan-1-one] | < 100 | < 50 | ≤ 1000 | < 500 | ≤ 1000 | < 500
CCN1CCN(c2cc3c(N[C@H](C)c4cccc(C(F)F)c4F)nc(C)nc3nc2OCCOC)CC1 [Compound 314, (R)-N-(1-(3-(difluoromethyl)-2-fluorophenyl)ethyl)-6-(4-ethylpiperazin-1-yl)-7-(2-methoxyethoxy)-2-methylpyrido[2,3-d] pyrimidin-4-amine] | < 100 | < 50 | ≤ 1000 | < 500 | ≤ 1000 | 
COc1nc2ncnc(N[C@H](C)c3cccc(C(F)F)c3F)c2cc1C1CCS(=O)(=O)CC1 [Compound 315, (R)-4-(4-((1-(3-(difluoromethyl)-2-fluorophenyl)ethyl)amino)-7-methoxypyrido[2,3-d]pyrimidin-6-yl)tetrahydro-2H-thiopyran 1,1-dioxide] | < 100 |  | 1000 to 10000 |  | ≤ 1000 | < 500
CC(C)N1CCC(c2cc3c(N[C@H](C)c4cccc(C(F)F)c4F)ncnc3nc2OC2COC2)CC1 [Compound 317, (R)-N-(1-(3-(difluoromethyl)-2-fluorophenyl)ethyl)-6-(1-isopropylpiperidin-4-yl)-7-(oxetan-3-yloxy)pyrido[2,3-d] pyrimidin-4-amine] | < 100 | < 50 | 1000 to 10000 |  | ≤ 1000 | < 500
CCN1CCC(c2cc3c(N[C@H](C)c4cccc(C(F)F)c4F)nc(C)nc3nc2OC2CN(C)C2)CC1 [Compound 318] | < 100 | < 50 | ≤ 1000 |  | ≤ 1000 | 
COc1nc2nc(C)nc(N[C@H](C)c3cccc(C(F)F)c3F)c2cc1C1(C#N)CCOCC1 [Compound 320, (R)-4-(4-((1-(3-(difluoromethyl)-2-fluorophenyl)ethyl)amino)-7-methoxy-2-methylpyrido[2,3-d]pyrimidin-6-yl)tetrahydro-2H-pyran-4-carbonitrile] | < 100 | < 50 | ≤ 1000 |  | ≤ 1000 | < 500
COc1nc2nc(C)nc(N[C@H](C)c3cccc(C(F)(F)C(C)(C)O)c3F)c2cc1C1CCS(=O)(=O)CC1 [Compound 321, (R)-4-(4-((1-(3-(1,1-difluoro-2-hydroxy-2-methylpropyl)-2-fluorophenyl)ethyl)amino)-7-methoxy-2-methylpyrido[2,3-d]pyrimidin-6-yl)tetrahydro-2H-thiopyran 1,1-dioxide] | < 100 | < 50 | ≤ 1000 |  | ≤ 1000 | < 500
COc1nc2nc(C)nc(N[C@H](C)c3cccc(C(F)(F)C(C)(C)O)c3F)c2cc1N1CCN(C)CC1 [Compound 323, (R)-1,1-difluoro-1-(2-fluoro-3-(1-((7-methoxy-2-methyl-6-(4-methylpiperazin-1-yl)pyrido[2,3-d]pyrimidin-4-yl)amino)ethyl)phenyl)-2-methylpropan-2-ol] | < 100 | < 50 | ≤ 1000 |  | ≤ 1000 | < 500
COc1nc2nc(C)nc(N[C@H](C)c3cccc(C(F)(F)C(C)(C)O)c3)c2cc1N1CCN(C)CC1 [Compound 324, (R)-1,1-difluoro-1-(3-(1-((7-methoxy-2-methyl-6-(4-methylpiperazin-1-yl)pyrido[2,3-d]pyrimidin-4-yl)amino)ethyl)phenyl)-2-methylpropan-2-ol] | < 100 | < 50 | ≤ 1000 | < 500 | ≤ 1000 | < 500
COc1nc2nc(OC[C@@H]3CCCN3C)nc(N[C@H](C)c3cccc(C(F)F)c3F)c2cc1C1(C#N)CC1 [Compound 326, 1-(4-(((R)-1-(3-(difluoromethyl)-2-fluorophenyl)ethyl)amino)-7-methoxy-2-(((S)-1-methylpyrrolidin-2-yl)methoxy)pyrido[2,3-d]pyrimidin-6-yl)cyclopropane-1-carbonitrile] | < 100 | < 50 | ≤ 1000 |  | ≤ 1000 | < 500
Cc1c([C@@H](C)Nc2ncnc3nc(Cl)c(N4CCS(=O)(=O)CC4)cc23)cccc1C(F)(F)F [Compound 328, (R)-4-(7-chloro-4-((1-(2-methyl-3-(trifluoromethyl)phenyl)ethyl)amino)pyrido[2,3-d]pyrimidin-6-yl)thiomorpholine 1,1-dioxide] | < 100 | < 50 | ≤ 1000 | < 500 | ≤ 1000 | < 500
C[C@@H](Nc1ncnc2nc(Cl)c(N3CCS(=O)(=O)CC3)cc12)c1cccc(C(F)(F)F)c1F [Compound 330, (R)-4-(7-chloro-4-((1-(2-fluoro-3-(trifluoromethyl)phenyl)ethyl)amino)pyrido[2,3-d]pyrimidin-6-yl)thiomorpholine 1,1-dioxide] | < 100 | < 50 | ≤ 1000 | < 500 | ≤ 1000 | < 500
C[C@@H](Nc1ncnc2nc(Cl)c(C3CCS(=O)(=O)CC3)cc12)c1cccc(C(F)(F)F)c1F [Compound 331, (R)-4-(7-chloro-4-((1-(2-fluoro-3-(trifluoromethyl)phenyl)ethyl)amino)pyrido[2,3-d]pyrimidin-6-yl)tetrahydro-2H-thiopyran 1,1-dioxide] | < 100 | < 50 | ≤ 1000 | < 500 | ≤ 1000 | < 500
Cc1nc(N[C@H](C)c2cccc(C(F)F)c2F)c2cc(C3CCN(C)CC3)c(OCCN(C)C)nc2n1 [Compound 334, (R)-N-(1-(3-(difluoromethyl)-2-fluorophenyl)ethyl)-7-(2-(dimethylamino)ethoxy)-2-methyl-6-(1-methylpiperidin-4-yl)pyrido[2,3-d]pyrimidin-4-amine] | < 100 | < 50 |  | < 500 |  | < 500
Cc1nc(N[C@H](C)c2cccc(C(F)F)c2F)c2cc(C3CCN(C(C)C)CC3)c(OC3COC3)nc2n1 [Compound 335, (R)-N-(1-(3-(difluoromethyl)-2-fluorophenyl)ethyl)-6-(1-isopropylpiperidin-4-yl)-2-methyl-7-(oxetan-3-yloxy)pyrido [2,3-d]pyrimidin-4-amine] | < 100 |  | ≤ 1000 |  | ≤ 1000 | 
Cc1nc(N[C@H](C)c2cccc(C(F)F)c2F)c2cc(N3CCN(C(C)C)CC3)c(OC3COC3)nc2n1 [Compound 336, (R)-N-(1-(3-(difluoromethyl)-2-fluorophenyl)ethyl)-6-(4-isopropylpiperazin-1-yl)-2-methyl-7-(oxetan-3-yloxy)pyrido [2,3-d]pyrimidin-4-amine] | < 100 | < 50 | ≤ 1000 | < 500 | ≤ 1000 | < 500
COc1nc2nc(C)nc(N[C@H](C)c3cccc(C(F)F)c3F)c2cc1C1CCN(C2CCOCC2)CC1 [Compound 337, (R)-N-(1-(3-(difluoromethyl)-2-fluorophenyl)ethyl)-7-methoxy-2-methyl-6-(1-(tetrahydro-2H-pyran-4-yl)piperidin-4-yl)pyrido[2,3-d]pyrimidin-4-amine] | < 100 | < 50 | ≤ 1000 | < 500 | ≤ 1000 | < 500
COc1nc2nc(C)nc(N[C@H](C)c3cccc(C(F)F)c3F)c2cc1N1CCN(C2CCOCC2)CC1 [Compound 338, (R)-N-(1-(3-(difluoromethyl)-2-fluorophenyl)ethyl)-7-methoxy-2-methyl-6-(4-(tetrahydro-2H-pyran-4-yl)piperazin-1-yl)pyrido[2,3-d]pyrimidin-4-amine] | < 100 | < 50 | ≤ 1000 |  | ≤ 1000 | < 500
Cc1nc(N[C@H](C)c2cccc(C(F)F)c2F)c2cc(C3CCN(C(C)C)CC3)c(OC3CNC3)nc2n1 [Compound 340, (R)-7-(azetidin-3-yloxy)-N-(1-(3-(difluoromethyl)-2-fluorophenyl)ethyl)-6-(1-isopropylpiperidin-4-yl)-2-methylpyrido[2,3-d]pyrimidin-4-amine] | < 100 | < 50 | 1000 to 10000 |  | 1000 to 10000 | 
Cc1nc(N[C@H](C)c2cccc(C(F)F)c2F)c2cc(S(=O)(=O)C3CCN(C)CC3)c(C#N)nc2n1 [Compound 341, (R)-4-((1-(3-(difluoromethyl)-2-fluorophenyl)ethyl)amino)-2-methyl-6-((1-methylpiperidin-4-yl)sulfonyl)pyrido[2,3-d] pyrimidine-7-carbonitrile] | < 100 | < 50 | ≤ 1000 | < 500 | ≤ 1000 | < 500
